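Briefly, cells in 96-well plates were exposed to five compound concentrations for 48 h, and endpoints were estimated by linear interpolation. Abbreviation: GI50, concentration required for 50% inhibition of growth. TGI: total growth inhibition.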
Tests used:
Assay in all cases: NCI anticancer screen, dose series, 48 h
NCI-H226 lung = system: NCI-H226 lung
NCI-H23 lung = system: NCI-H23 lung
NCI-H460 lung = system: NCI-H460 lung
NCI-H522 lung = system: NCI-H522 lung
NCI/ADR-RES ovarian = system: NCI/ADR-RES ovarian
OVCAR-3 ovarian = system: OVCAR-3 ovarian
OVCAR-4 ovarian = system: OVCAR-4 ovarian
OVCAR-5 ovarian = system: OVCAR-5 ovarian
OVCAR-8 ovarian = system: OVCAR-8 ovarian
PC-3 prostate = system: PC-3 prostate
RPMI-8226 leukemia = system: RPMI-8226 leukemia
RXF 393 renal = system: RXF 393 renal
SF-268 CNS = system: SF-268 CNS
SF-295 CNS = system: SF-295 CNS
SF-539 CNS = system: SF-539 CNS
SK-MEL-2 melanoma = system: SK-MEL-2 melanoma
SK-MEL-28 melanoma = system: SK-MEL-28 melanoma
SK-MEL-5 melanoma = system: SK-MEL-5 melanoma
SK-OV-3 ovarian = system: SK-OV-3 ovarian
SN12C renal = system: SN12C renal
SNB-19 CNS = system: SNB-19 CNS
SNB-75 CNS = system: SNB-75 CNS
SW-620 colon = system: SW-620 colon
T-47D breast = system: T-47D breast
TK-10 renal = system: TK-10 renal
U251 CNS = system: U251 CNS
UACC-257 melanoma = system: UACC-257 melanoma
UACC-62 melanoma = system: UACC-62 melanoma
UO-31 renal = system: UO-31 renal

SMILES: COc1cc(/C=C/C(=O)c2ccc(F)cc2)ccc1OCCCN1CCN(CC(=O)Nc2ccc(Cl)cc2C(=O)c2ccccc2Cl)CC1
- TGI (NCI-H226 lung): 37.2 µM
- GI50 (NCI-H23 lung): 17.4 µM
- TGI (NCI-H23 lung): > 100 µM
- GI50 (NCI-H460 lung): 4.47 µM
- TGI (NCI-H460 lung): > 100 µM
- GI50 (NCI-H522 lung): 14.4 µM
- TGI (NCI-H522 lung): 33.7 µM
- GI50 (NCI/ADR-RES ovarian): 13 µM
- TGI (NCI/ADR-RES ovarian): > 100 µM
- GI50 (OVCAR-3 ovarian): 11.3 µM
- TGI (OVCAR-3 ovarian): 27.2 µM
- GI50 (OVCAR-4 ovarian): 9.48 µM
- TGI (OVCAR-4 ovarian): 34.5 µM
- GI50 (OVCAR-5 ovarian): 13.4 µM
- TGI (OVCAR-5 ovarian): > 100 µM
- GI50 (OVCAR-8 ovarian): 11.7 µM
- TGI (OVCAR-8 ovarian): 68.1 µM
- GI50 (PC-3 prostate): 5.06 µM
- TGI (PC-3 prostate): 45.7 µM
- GI50 (RPMI-8226 leukemia): 2 µM
- TGI (RPMI-8226 leukemia): 5.46 µM
- GI50 (RXF 393 renal): 2.84 µM
- TGI (RXF 393 renal): 15.8 µM
- GI50 (SF-268 CNS): 16.9 µM
- TGI (SF-268 CNS): > 100 µM
- GI50 (SF-295 CNS): 5.57 µM
- TGI (SF-295 CNS): 19 µM
- GI50 (SF-539 CNS): 10.2 µM
- TGI (SF-539 CNS): 23.3 µM
- GI50 (SK-MEL-2 melanoma): 12.6 µM
- TGI (SK-MEL-2 melanoma): 32.1 µM
- GI50 (SK-MEL-28 melanoma): 3.68 µM
- TGI (SK-MEL-28 melanoma): 12.6 µM
- GI50 (SK-MEL-5 melanoma): 3.42 µM
- TGI (SK-MEL-5 melanoma): 14.7 µM
- GI50 (SK-OV-3 ovarian): 17.4 µM
- TGI (SK-OV-3 ovarian): 44.2 µM
- GI50 (SN12C renal): 12.7 µM
- TGI (SN12C renal): 44.3 µM
- GI50 (SNB-19 CNS): 18.9 µM
- TGI (SNB-19 CNS): 49.2 µM
- GI50 (SNB-75 CNS): 6.05 µM
- TGI (SNB-75 CNS): 34.1 µM
- GI50 (SW-620 colon): 2.73 µM
- TGI (SW-620 colon): 10.7 µM
- GI50 (T-47D breast): 21.4 µM
- TGI (T-47D breast): > 100 µM
- GI50 (TK-10 renal): 10.4 µM
- TGI (TK-10 renal): 26.1 µM
- GI50 (U251 CNS): 5.01 µM
- TGI (U251 CNS): 17.3 µM
- GI50 (UACC-257 melanoma): 9.51 µM
- TGI (UACC-257 melanoma): 47.9 µM
- GI50 (UACC-62 melanoma): 10.4 µM
- TGI (UACC-62 melanoma): 22.9 µM
- GI50 (UO-31 renal): 2.45 µM
- TGI (UO-31 renal): 20 µM
